Test results published in patent publication US7846917B2, “18-Methyl-19-norandrost-4-ene 17, 17-spiro ether (18-methyl-19-nor-20-spirox-4-en-3-one), and pharmaceutical products comprising the same” (Bayer Schering Pharma AG, priority 2006, dated 2010).

Legend:
[1] = molecular target: T1, mineralocorticoid receptor (Rattus norvegicus, UniProt P22199); test: mineralocorticoid receptor binding, rat kidney homogenate; conditions: for MR [KF]: 3H-aldosterone = 1; for MR [RBA]: 3H-aldosterone = 100
T1 construct: mineralocorticoid receptor from rat kidney homogenate; from tissue; host or cells: rat kidney homogenate
T1 sequence (P22199 1-981): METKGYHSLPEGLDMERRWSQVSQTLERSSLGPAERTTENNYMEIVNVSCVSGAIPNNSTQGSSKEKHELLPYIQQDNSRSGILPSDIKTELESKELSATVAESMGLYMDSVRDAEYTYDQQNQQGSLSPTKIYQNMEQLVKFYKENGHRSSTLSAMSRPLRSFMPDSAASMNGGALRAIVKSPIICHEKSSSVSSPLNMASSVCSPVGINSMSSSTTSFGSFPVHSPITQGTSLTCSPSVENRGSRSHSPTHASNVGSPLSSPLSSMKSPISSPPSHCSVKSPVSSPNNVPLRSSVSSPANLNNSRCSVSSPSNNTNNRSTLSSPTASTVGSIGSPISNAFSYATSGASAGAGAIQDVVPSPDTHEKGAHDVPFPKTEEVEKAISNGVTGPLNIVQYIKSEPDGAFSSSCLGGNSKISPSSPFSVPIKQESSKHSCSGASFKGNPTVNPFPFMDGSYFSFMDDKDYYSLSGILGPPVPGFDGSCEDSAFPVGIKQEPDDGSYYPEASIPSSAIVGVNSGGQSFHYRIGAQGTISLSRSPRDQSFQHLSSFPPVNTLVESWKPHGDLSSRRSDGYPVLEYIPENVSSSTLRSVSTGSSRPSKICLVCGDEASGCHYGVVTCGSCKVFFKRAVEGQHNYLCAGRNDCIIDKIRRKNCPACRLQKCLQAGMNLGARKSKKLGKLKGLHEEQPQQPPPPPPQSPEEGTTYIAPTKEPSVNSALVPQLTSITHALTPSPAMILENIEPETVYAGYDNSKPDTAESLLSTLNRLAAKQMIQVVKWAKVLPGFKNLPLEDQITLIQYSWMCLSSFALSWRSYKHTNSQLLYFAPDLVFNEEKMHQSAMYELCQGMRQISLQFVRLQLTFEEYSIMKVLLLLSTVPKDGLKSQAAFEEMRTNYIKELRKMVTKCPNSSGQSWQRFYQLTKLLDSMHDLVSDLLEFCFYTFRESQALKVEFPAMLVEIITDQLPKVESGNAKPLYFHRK
Text: (§1) This object is achieved by the provision of the 18-methyl-15β,16β-methylene-19-nor-20-spirox-4-en-3-ones of the general formula I described herein.

progesterone receptor = molecular target: T2, progesterone receptor (Oryctolagus cuniculus, UniProt P06186); test: progesterone receptor binding assay using cytosol from rabbit uterus homogenate; conditions: for PR [KF]: 3H-progesterone = 1; for PR [RBA]: 3H-progesterone = 100
T2 construct: cytosol from rabbit uterus homogenate; from tissue; host or cells: rabbit uterus (cytosol of homogenate)
T2 sequence (P06186 1-930): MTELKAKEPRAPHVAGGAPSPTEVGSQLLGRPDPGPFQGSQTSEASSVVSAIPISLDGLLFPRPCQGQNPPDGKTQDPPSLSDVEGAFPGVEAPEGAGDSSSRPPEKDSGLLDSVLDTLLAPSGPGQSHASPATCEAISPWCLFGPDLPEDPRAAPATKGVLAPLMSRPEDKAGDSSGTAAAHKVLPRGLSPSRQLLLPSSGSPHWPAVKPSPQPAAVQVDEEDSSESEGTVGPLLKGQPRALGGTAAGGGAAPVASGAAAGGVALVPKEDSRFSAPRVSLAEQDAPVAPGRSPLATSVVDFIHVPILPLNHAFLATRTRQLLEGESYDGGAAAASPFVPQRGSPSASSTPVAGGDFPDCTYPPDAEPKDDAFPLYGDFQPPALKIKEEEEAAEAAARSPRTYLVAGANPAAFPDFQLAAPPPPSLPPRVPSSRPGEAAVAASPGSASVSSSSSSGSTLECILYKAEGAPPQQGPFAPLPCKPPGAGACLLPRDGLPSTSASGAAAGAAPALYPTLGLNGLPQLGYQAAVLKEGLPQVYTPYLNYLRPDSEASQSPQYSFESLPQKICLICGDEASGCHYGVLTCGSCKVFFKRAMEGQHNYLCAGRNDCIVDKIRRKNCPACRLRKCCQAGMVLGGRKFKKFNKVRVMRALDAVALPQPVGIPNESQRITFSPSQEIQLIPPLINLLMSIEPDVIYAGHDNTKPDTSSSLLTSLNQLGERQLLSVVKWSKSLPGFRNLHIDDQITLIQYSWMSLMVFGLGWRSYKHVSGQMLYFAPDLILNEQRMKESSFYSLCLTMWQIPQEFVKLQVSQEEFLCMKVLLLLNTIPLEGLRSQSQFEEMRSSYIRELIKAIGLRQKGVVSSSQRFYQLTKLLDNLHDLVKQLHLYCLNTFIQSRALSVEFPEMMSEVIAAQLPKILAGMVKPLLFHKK
Text: as §1

| SMILES | MR [KF] [1] | MR [RBA] [1] | PR [KF] (progesterone receptor) | PR [RBA] (progesterone receptor) |
| --- | --- | --- | --- | --- |
| CC[C@]12CCC3C4CCC(=O)C=C4C4CC4C3C1[C@@H]1C[C@@H]1[C@@]21CCCO1 (stereo partly drawn) [Example 2, 18-Methyl-6α,7α,15β,16β-dimethylene-19-nor-20-spirox-4-en-3-one] | 0.4 | 250 | 2.34 | 43 |
| CCC12CCC3C4CCC(=O)C(C)=C4C4CC4C3C1C1CC1C21CCCO1 (stereo not drawn) [Example 17, 4,18-Dimethyl-6β,7β,15β,16β-dimethylene-19-nor-20-spirox-4-en-3-one] | 7.8 | 13 | 3.45 | 29 |
| CC[C@]12CC[C@H]3[C@@H]([C@H]4C[C@H]4C4=C(Cl)C(=O)CC[C@@H]43)[C@@H]1[C@@H]1C[C@@H]1[C@@]21CCCO1 [Example 18, 4-Chloro-18-methyl-6β,7β,15β,16β-dimethylene-19-nor-20-spirox-4-en-3-one] | 88 | 1 | 3.01 | 33 |
| CC[C@]12CC[C@H]3[C@@H](CCC4=C(C)C(=O)CC[C@@H]43)[C@@H]1[C@@H]1C[C@@H]1[C@@]21CCCO1 [Example 14, 4,18-Dimethyl-150,16β-methylene-19-nor-20-spirox-4-en-3-one] | 7.6 | 13 | 3.245 | 31 |
| CCC12CCC3C4CCC(=O)C=C4CC(C)C3C1C1CC1C21CCCO1 (stereo not drawn) [Example 7, 7β,18-Dimethyl-15β,16β-methylene-19-nor-20-spirox-4-en-3-one] | 0.5 | 200 | 1.08 | 93 |
| CCC1CC2=CC(=O)CCC2C2CCC3(CC)C(C4CC4C34CCCO4)C12 (stereo not drawn) [Example 9, 7β-Ethyl-18-methyl-15β,16β-methylene-19-nor-20-spirox-4-en-3-one] | 42 | 2 | 4.295 | 23 |
| C[C@]12CCC(=O)C=C1[C@@H]1C[C@@H]1[C@H]1[C@@H]3[C@@H]4C[C@@H]4[C@@]4(CCC(=O)O4)[C@@]3(C)CC[C@@H]12 [DRSP, 6β,7β-15β,16β-dimethylene-3-oxo-17-pregn-4-ene-21,17β-carbolactone, reference compound] | 0.3 | 333 | 2.5 | 40 |
| CC[C@]12CC[C@H]3[C@H]([C@@H]1[C@@H]1C[C@@H]1[C@@]21CCCO1)[C@H](C1CC1)CC1=CC(=O)CC[C@@H]13 [Example 12, 7α-Cyclopropyl-18-methyl-15β,16β-methylene-19-nor-20-spirox-4-en-3-one] | 0.7 | 143 | 2.355 | 42 |
| CC[C@]12CC[C@H]3[C@H]([C@@H]1[C@@H]1C[C@@H]1[C@@]21CCCO1)[C@H](C)CC1=CC(=O)CC[C@@H]13 [Example 6, 7α,18-Dimethyl-15β,16β-methylene-19-nor-20-spirox-4-en-3-one] | 0.6 | 167 | 1.13 | 88 |
